# pEC50: −log10 of the molar value.
# Biological target: T1, human FSH receptor (Homo sapiens, UniProt P23945)
# T1 construct: expressed in transfected cells; host or cells: Chinese Hamster Ovary (CHO) cells, stably transfected, cotransfected with CRE/promotor-firefly luciferase reporter
# T1 sequence (P23945 18-695): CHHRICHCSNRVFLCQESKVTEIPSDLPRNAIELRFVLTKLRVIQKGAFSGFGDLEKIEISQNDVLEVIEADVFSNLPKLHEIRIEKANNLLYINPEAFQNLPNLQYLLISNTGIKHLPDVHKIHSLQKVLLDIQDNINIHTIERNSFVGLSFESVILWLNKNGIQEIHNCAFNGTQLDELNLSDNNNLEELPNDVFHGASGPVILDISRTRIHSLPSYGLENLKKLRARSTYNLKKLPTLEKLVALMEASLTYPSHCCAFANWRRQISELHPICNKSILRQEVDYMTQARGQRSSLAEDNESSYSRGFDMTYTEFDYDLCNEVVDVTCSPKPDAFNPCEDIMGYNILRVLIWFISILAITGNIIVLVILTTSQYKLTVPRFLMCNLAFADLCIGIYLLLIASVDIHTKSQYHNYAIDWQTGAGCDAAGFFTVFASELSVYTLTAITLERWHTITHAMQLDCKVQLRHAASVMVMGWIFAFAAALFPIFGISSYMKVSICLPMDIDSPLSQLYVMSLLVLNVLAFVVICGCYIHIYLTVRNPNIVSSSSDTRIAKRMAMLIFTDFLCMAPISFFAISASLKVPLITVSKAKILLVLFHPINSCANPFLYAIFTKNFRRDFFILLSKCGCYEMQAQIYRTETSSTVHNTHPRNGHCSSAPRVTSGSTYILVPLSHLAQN
# Assay: Agonistic activity of compounds at the human FSH receptor expressed in CHO cells, CRE/luciferase reporter (hFSHRago (CHO luc))
# Format: cell-based
# Conditions: CHO cells stably transfected with the human FSH receptor and CRE/firefly luciferase reporter; 4 hours of incubation; half-maximal stimulation relative to the compound's own maximal effect; read-out: hFSHRago (CHO luc) EC50
# Excerpt: The term EC50 means the concentration of the test compound that elicits half-maximal (50 %) stimulation compared to the compound's maximally attainable effect. The values can be determined e.g. in a cell line transfected with a FSH receptor gene and cotransfected with a cAMP responsive element/promoter directing the expression of a reporter gene. Values can be determined using a software program such as MathIQ (version 2.0, ID Business Solutions Limited).
# Agonistic activity of the compounds at the human FSH receptor was determined in Chinese Hamster Ovary (CHO) cells stably transfected with the human FSH receptor and cotransfected with a cAMP responsive element (CRE)/promotor directing the expression of a firefly luciferase reporter gene. Binding of the compounds to the Gs protein-coupled FSH receptor will result in an increase of cAMP, which in turn will induce an increased transactivation of the luciferase reporter. Cells (7,500 cells/well of a 384 well plate) were incubated in Dulbecco' minimal essential F12 modified medium (Invitrogen), supplemented with 1 µg/ml bovine insulin, 5 µg/ml human apo-transferrin, 80 U/ml penicillin G and 80 µg/ml streptomycin with the test compounds (concentration between 0.0316 nM and 10.0 µM) in duplicate in a humidified atmosphere (95%) at 5-7% CO2 and 37°C. The final concentration of DMSO was 1%. After 4 hours of incubation, plates were allowed to adjust to room temperature for 1 hour. Then, Luclite (PerkinElmer) solution was added to the wells and cells were allowed to lyse for at least 1 hour at room temperature. Subsequently, luciferase activity was measured in a luminescence counter. The signal is expressed as counts per second (cps). The EC50 (concentration of the test compound that elicits half-maximal (50 %) luciferase stimulation compared to the compound's maximally attainable effect) and efficacy values (maximal effect of the test compound as percentage of the maximal effect of recombinant human FSH) of the compounds were determined using the software program MathIQ (version 2.0, ID Business Solutions Limited). EC50 data are indicated at the synthesis examples.
row,pEC50,Compound
1,8.15,"COc1cc2c(cc1OCCO)-c1c(-c3cccs3)nc(C(=O)N(C)C(C)(C)C)n1CC2 [Example 30c, 9-(2-Hydroxy-ethoxy)-8-methoxy-1-thiophen-2-yl-5,6-dihydro-imidazo[5,1-a]isoquinoline-3-carboxylic acid tert-butyl-methyl-amide]"
2,7.82,"COc1cc2c(cc1OCCN=[N+]=[N-])-c1c(-c3cccs3)nc(C(=O)N(C)C(C)(C)C)n1CC2 [Example 30e, 9-(2-Azido-ethoxy)-8-methoxy-1-thiophen-2-yl-5,6-dihydro-imidazo[5,1-a]isoquinoline-3-carboxylic acid tert-butyl-methyl-amide]"
3,7.03,"COc1cc2c(cc1OCCN)-c1c(-c3cccs3)nc(C(=O)N(C)C(C)(C)C)n1CC2 [Example 31, 9-(2-Amino-ethoxy)-8-methoxy-1-thiophen-2-yl-5,6-dihydro-imidazo[5,1-a]isoquinoline-3-carboxylic acid tert-butyl-methyl-amide]"
4,6.25,"COc1cc2c(cc1OCCNC(C)=O)-c1c(-c3cccs3)nc(C(=O)N(C)C(C)(C)C)n1CC2 [Example 32, 9-(2-Acetylamino-ethoxy)-8-methoxy-1-thiophen-2-yl-5,6-dihydro-imidazo[5,1-a]isoquinoline-3-carboxylic acid tert-butyl-methyl-amide]"
5,6.85,"COC(=O)NCCOc1cc2c(cc1OC)CCn1c(C(=O)N(C)C(C)(C)C)nc(-c3cccs3)c1-2 [Example 33, {2-[3-(tert-Butyl-methyl-carbamoyl)-8-methoxy-1-thiophen-2-yl-5,6-dihydro-imidazo[5,1-a]isoquinolin-9-yloxy]-ethyl}-carbamic acid methyl ester]"
6,8.52,"CCN(C(=O)c1nc(-c2cccs2)c2n1CCc1cc(OC)c(OCCO)cc1-2)C(C)(C)C [Example 34b, 9-(2-Hydroxy-ethoxy)-8-methoxy-1-thiophen-2-yl-5,6-dihydro-imidazo[5,1-a]isoquinoline-3-carboxylic acid tert-butyl-ethyl-amide]"
7,7.72,"COCOc1cc2c(cc1OC)CCn1c(C(=O)N(C)C(C)(C)C)nc(-c3cccs3)c1-2 [Example 35b, 8-Methoxy-9-methoxymethoxy-1-thiophen-2-yl-5,6-dihydro-imidazo[5,1-a]isoquinoline-3-carboxylic acid tert-butyl-methyl-amide]"
8,8.70,"COc1cc2c(cc1C=C(C)C)-c1c(-c3cccs3)nc(C(=O)N(C)C(C)(C)C)n1CC2 [Example 36c, 8-Methoxy-9-(2-methyl-propenyl)-1-thiophen-2-yl-5,6-dihydro-imidazo[5,1-a]isoquinoline-3-carboxylic acid tert-butyl-methyl-amide]"
9,6.42,"COc1cc2c(cc1CC(C)C)-c1c(-c3ncco3)nc(C(=O)N(C)C(C)(C)C)n1CC2 [Example 37f, 9-Isobutyl-8-methoxy-1-oxazol-2-yl-5,6-dihydro-imidazo[5,1-a]isoquinoline-3-carboxylic acid tert-butyl-methyl-amide]"
10,7.89,"COc1cc2c(cc1CC(C)C)-c1c(-c3cncs3)nc(C(=O)N(C)C(C)(C)C)n1CC2 [Example 38, 9-Isobutyl-8-methoxy-1-thiazol-5-yl-5,6-dihydro-imidazo[5,1-a]isoquinoline-3-carboxylic acid tert-butyl-methyl-amide]"
11,7.66,"COc1cc2c(cc1C=C(F)F)-c1c(-c3cccs3)nc(C(=O)N(C)C(C)(C)C)n1CC2 [Example 39, 9-(2,2-Difluoro-vinyl)-8-methoxy-1-thiophen-2-yl-5,6-dihydro-imidazo[5,1-a]isoquinoline-3-carboxylic acid tert-butyl-methyl-amide]"
12,6.38,"CCOc1ccc2c(c1)CCn1c(C(=O)N(C)C(C)(C)C)nc(-c3cccs3)c1-2 [Example 40c, 8-Ethoxy-1-thiophen-2-yl-5,6-dihydro-imidazo[5,1-a]isoquinoline-3-carboxylic acid tert-butyl-methyl-amide]"
13,6.72,"COc1cc2c(cc1CCC(C)(C)O)-c1c(-c3cccs3)nc(C(=O)N(C)C(C)(C)C)n1CC2 [Example 41c, 9-(3-Hydroxy-3-methyl-butyl)-8-methoxy-1-thiophen-2-yl-5,6-dihydro-imidazo[5,1-a]isoquinoline-3-carboxylic acid tert-butyl-methyl-amide]"
14,6.89,"COc1cc2c(cc1Oc1ccccc1)-c1c(-c3cccs3)nc(C(=O)N(C)C(C)(C)C)n1CC2 [Example 42b, 8-Methoxy-9-phenoxy-1-thiophen-2-yl-5,6-dihydro-imidazo[5,1-a]isoquinoline-3-carboxylic acid tert-butyl-methyl-amide]"
15,6.35,"COc1cccc(Oc2cc3c(cc2OC)CCn2c(C(=O)N(C)C(C)(C)C)nc(-c4cccs4)c2-3)c1 [Example 43b, 8-Methoxy-9-(3-methoxy-phenoxy)-1-thiophen-2-yl-5,6-dihydro-imidazo[5,1-a]isoquinoline-3-carboxylic acid tert-butyl-methyl-amide]"
16,7.48,"COc1cc2c(cc1-c1cccnc1)-c1c(C(C)(C)C)nc(C(=O)N(C)C(C)(C)C)n1CC2 [Example 44e, 1-tert-Butyl-8-methoxy-9-pyridin-3-yl-5,6-dihydro-imidazo[5,1-a]isoquinoline-3-carboxylic acid tert-butyl-methyl-amide]"
17,6.95,"COc1cc2c(cc1N1CCOCC1)-c1c(-c3cccs3)nc(C(=O)N(C)C(C)(C)C)n1CC2 [Example 45, 8-Methoxy-9-morpholin-4-yl-1-thiophen-2-yl-5,6-dihydro-imidazo[5,1-a]isoquinoline-3-carboxylic acid tert-butyl-methyl-amide]"
18,6.83,"COc1cc2c(cc1NC(=O)C(C)C)-c1c(-c3cccs3)nc(C(=O)N(C)C(C)(C)C)n1CC2 [Example 46, 9-Isobutyrylamino-8-methoxy-1-thiophen-2-yl-5,6-dihydro-imidazo[5,1-a]isoquinoline-3-carboxylic acid tert-butyl-methyl-amide]"
19,8.22,"COc1cc2c(cc1OC(C)C)-c1c(-c3cncs3)nc(C(=O)N(C)C(C)(C)C)n1CC2 [Example 47e, 9-Isopropoxy-8-methoxy-1-thiazol-5-yl-5,6-dihydro-imidazo[5,1-a]isoquinoline-3-carboxylic acid tert-butyl-methyl-amide]"
20,8.15,"COc1cc2c(c(F)c1CC(C)C)-c1c(-c3cccs3)nc(C(=O)N(C)C(C)(C)C)n1CC2 [Example 48j, 10-Fluoro-9-isobutyl-8-methoxy-1-thiophen-2-yl-5,6-dihydro-imidazo[5,1-a]isoquinoline-3-carboxylic acid tert-butyl-methyl-amide]"
21,6.20,"COc1cc2c(cc1OC)-c1c(-c3ccccc3)nc(C(=O)N3CCCCCC3)n1CC2 [Example 49d, Azepan-1-yl-(8,9-dimethoxy-1-phenyl-5,6-dihydro-imidazo[5,1-a]isoquinolin-3-yl)-methanone]"
22,6.50,"COc1cc2c(cc1OC)-c1c(-c3ccc(F)cc3)nc(C(=O)N3CCCN(C(C)=O)CC3)n1CC2 [Example 50e, 1-{4-[1-(4-Fluoro-phenyl)-8,9-dimethoxy-5,6-dihydro-imidazo[5,1-a]isoquinoline-3-carbonyl]-[1,4]diazepan-1-yl}-ethanone]"
23,7.80,"COc1cc2c(cc1SC(C)C)-c1c(-c3cccs3)nc(C(=O)N(C)C(C)(C)C)n1CC2 [Example 52c, 9-Isopropylsulfanyl-8-methoxy-1-thiophen-2-yl-5,6-dihydro-imidazo[5,1-a]isoquinoline-3-carboxylic acid tert-butyl-methyl-amide]"

# Reference: patent publication EP2435433B1, “(DIHYDRO)IMIDAZOISO[5,1-A]QUINOLINES AS FSH RECEPTOR AGONISTS FOR THE TREATMENT OF FERTILITY DISORDERS” (Merck Sharp & Dohme B.V., priority 2009, dated 2010)
